Where a name gives a salt, the structure may show the parent alone. Some results are limits rather than exact numbers.

For this experiment, the target named is T1, AR (Homo sapiens, UniProt P10275).
T1 construct: endogenous in cells; host or cells: VCaP cells
T1 sequence (P10275 1-920): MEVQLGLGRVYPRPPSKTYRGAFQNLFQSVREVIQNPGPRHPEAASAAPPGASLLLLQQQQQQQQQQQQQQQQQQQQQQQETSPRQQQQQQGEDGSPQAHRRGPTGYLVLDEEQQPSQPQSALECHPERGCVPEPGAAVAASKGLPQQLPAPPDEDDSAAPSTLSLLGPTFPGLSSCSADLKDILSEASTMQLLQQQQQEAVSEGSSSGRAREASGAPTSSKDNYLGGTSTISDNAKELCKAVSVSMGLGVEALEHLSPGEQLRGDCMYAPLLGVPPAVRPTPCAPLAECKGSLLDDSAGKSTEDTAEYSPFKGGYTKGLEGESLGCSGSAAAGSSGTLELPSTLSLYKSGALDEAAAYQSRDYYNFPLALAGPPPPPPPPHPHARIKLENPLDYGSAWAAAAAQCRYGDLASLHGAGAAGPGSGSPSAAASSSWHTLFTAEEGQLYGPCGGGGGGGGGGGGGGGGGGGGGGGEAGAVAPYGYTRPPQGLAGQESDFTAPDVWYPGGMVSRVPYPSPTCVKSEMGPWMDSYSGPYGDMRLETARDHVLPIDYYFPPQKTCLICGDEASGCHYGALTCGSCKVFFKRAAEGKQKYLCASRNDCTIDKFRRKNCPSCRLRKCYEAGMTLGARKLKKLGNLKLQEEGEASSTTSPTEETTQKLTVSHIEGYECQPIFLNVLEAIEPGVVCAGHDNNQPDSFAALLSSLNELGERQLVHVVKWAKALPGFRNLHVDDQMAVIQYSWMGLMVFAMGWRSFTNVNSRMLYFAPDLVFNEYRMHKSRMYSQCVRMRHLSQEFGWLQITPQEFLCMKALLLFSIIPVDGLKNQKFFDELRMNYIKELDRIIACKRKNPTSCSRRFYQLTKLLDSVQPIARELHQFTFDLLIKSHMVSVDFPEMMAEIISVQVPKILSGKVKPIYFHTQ
The experiment can be described thus: VCAP AR Degradation Assay. In kind it is cell-based. To be noted: VCaP cells, 24 h, AR ELISA; for DC50: concentration of compound when AR level = 50% of DMSO control; for Y: lowest measured AR level normalized to DMSO control (AR degradation efficiency). Here is the method:
VCAP AR Degradation Assay. Test compounds were pre-dispensed into a Corning CellBind 96-well clear bottom plate (Cat #3300) using an acoustic dispenser to make a 10-point concentration series at 1:3 dilution for each compound. The final top concentration of each compound was 5 μM. DMSO at a final concentration of 0.1% was used as a control. VCaP cells cultured in DMEM with 8% fetal bovine serum (FBS) were seeded at 50K cells per well in a 200 μL volume into the compound plate and incubated at 37° C. in a CO2 incubator for 24 h. The medium was carefully removed from the cells and the plate was placed on ice. One hundred μL of ice-cold 1× cell lysis buffer from Cell Signaling Technologies (Cat #9803) was added to each well of the cells and the plate was incubated at 4° C. on a shaker for 1 h. Fifteen μL of cell lysate was used for AR ELISA detection using a PathScan Total Sandwich AR ELISA kit (Cell Signaling Technology, Cat #12580). AR levels in compound-treated wells were normalized to that of DMSO control and expressed as percent of control (PoC) (y). A Four Parameter Logistic Model (Sigmoidal Dose-Response Model) was used to determine the compound's DC50, and EC50, using the following equation: […]
The lowest measured AR level normalized to DMSO control in response to compound treatment, termed Y value, was used to characterize the compound-mediated AR degradation efficiency.
(In an ELISA, binding on a coated surface is turned into a signal by an enzyme label.)

Consider `C[C@@H]1CN(CCO[C@H]2CC[C@H](N3C(=S)N(c4ccc(C#N)c(C(F)(F)F)c4)C(=O)C3(C)C)CC2)C[C@H](C)N1CC(=O)Nc1ccc(C2(C)CCC(=O)NC2=O)cn1` (single isomer, unassigned) [Cmpd 6, hydrochloride], for which the DC50 (usually the concentration at which degradation of the target reaches its halfway point) is over 200 nM and the Y result is “*** (40%<Y<80%)”.

Consider `CC1(C)C(=O)N(c2cnc(C#N)c(C(F)(F)F)c2)C(=S)N1[C@H]1CC[C@H](CCCN2CCN(CC(=O)Nc3cc(C4CCC(=O)NC4=O)ccn3)[C@@H](C(F)(F)F)C2)CC1` (stereo partly drawn) [Cmpd 23, 2-((R)-4-(3-((trans)-4-(3-(6-Cyano-5-(trifluoromethyl)pyridin-3-yl)-5,5-dimethyl-4-oxo-2-thioxoimidazolidin-1-yl)cyclohexyl)propyl)-2-(trifluoromethyl)piperazin-1-yl)-N-(4-(2,6-dioxopiperidin-3-yl)pyridin-2-yl)acetamide], for which the half-maximal degradation concentration (DC50) is 5 to 50 nM and the Y result is reported as “* (0<Y≤20%)”.

`C[C@@H]1C[C@H](OCC[C@H]2CC[C@H](N3C(=S)N(c4ccc(C#N)c(C(F)(F)F)c4)C(=O)C3(C)C)CC2)C[C@H](C)N1CC(=O)Nc1cc(C2CCC(=O)NC2=O)ccn1` (stereo partly drawn) [Cmpd 27, 2-((2R,4r,6S)-4-(2-((trans)-4-(3-(4-Cyano-3-(trifluoromethyl)phenyl)-5,5-dimethyl-4-oxo-2-thioxoimidazolidin-1-yl)cyclohexyl)ethoxy)-2,6-dimethylpiperidin-1-yl)-N-(4-(2,6-dioxopiperidin-3-yl)pyridin-2-yl)acetamide]: the DC50 was 5 to 50 nM and the Y entry is given as “** (20%<Y≤40%)”.

In the case of `C[C@@H]1CN(CCO[C@H]2CC[C@H](N3C(=S)N(c4ccc(C#N)c(C(F)(F)F)c4)C(=O)C3(C)C)CC2)C[C@H](C)N1CC(=O)Nc1cc(C2(C)CCC(=O)NC2=O)ccn1` (single isomer, unassigned) [Cmpd 9, hydrochloride], the half-maximal degradation concentration (DC50) was at most 5 nM. For the same compound, for the setting “hydrochloride”, the Y result is reported as “** (20%<Y≤40%)”.

In the case of `C[C@@H]1CN(CCCO[C@H]2CC[C@H](N3C(=S)N(c4ccc(C#N)c(C(F)(F)F)c4)C(=O)C3(C)C)CC2)C[C@H](C)N1CC(=O)Nc1cc(C2CCC(=O)NC2=O)ccn1` (stereo partly drawn) [Cmpd 13, 2-((2R,6S)-4-(3-((trans-4-(3-(4-Cyano-3-(trifluoromethyl)phenyl)-5,5-dimethyl-4-oxo-2-thioxoimidazolidin-1-yl)cyclohexyl)oxy)propyl)-2,6-dimethylpiperazin-1-yl)-N-(4-(2,6-dioxopiperidin-3-yl)pyridin-2-yl)acetamide hydrochloride], the DC50 was at most 5 nM and the Y result is “*** (40%<Y<80%)”.

Values taken from patent publication US20250100995A1, “CEREBLON BINDING COMPOUNDS, COMPOSITIONS THEREOF, AND METHODS OF TREATMENT THEREWITH” (CELGENE CORPORATION, priority 2021, published 2025).
